Results from patent US10525079B2, “Pharmaceutical composition for preventing or treating breast cancer including crystalline polymorph of tetraarsenic hexoxide, and method for producing same” (CHEMAS CO., LTD., priority 2016, dated 2020).

How the values were obtained:
[1] = test system: human breast cancer cells, MDA-MB-231; assay: Breast cancer metastasis inhibitory effect in nude mice transplanted with MDA-MB-231; assay type: in vivo, babl/c-nu male nude mice; details: MDA-MB-231 subcutaneous, oral 4.5 mg/kg for 7 days; for percentage of inhibition of cancer cell metastasis: cancer cells spread to the lungs counted; for spreading of the breast cancer cells to the lungs: versus untreated control
Description: The nude mice were allowed free access to food and water, and were bred in a 12-hr light/12-hr dark cycle for 7 days.
The mice were transplanted with human breast cancer cells, MDA-MB-231, through subcutaneous injection, and bred for 7 days. After 7 days, the mice were randomly divided, and then respective mice were orally administered with the compositions of Example 1 and Comparative Example 1 at 4.5 mg/kg for 7 days. Here, the mice treated with nothing after the transplantation of breast cancer cells were used as a control group. After 7 days of administration of the compositions, lung tissues were taken from the mice, and then cancer cells spread to the lungs were counted to compare the degree of inhibition of breast cancer metastasis.

p21 = assay: RT-PCR mRNA expression of p21 in MCF-7 cells; assay type: cell-based, human; details: 0-15 μM, 24 hours, with increase in concentration
Description: (§1) Fetal bovine serum (FBS) and cell culture medium were prepared (Hyclone). RT-PCR Kit and Trizol were obtained from Takara Biotechnology CO., LTD., and Annexin V-FITC was obtained from Shanghai Biyuntian Biological Technology Co., LTD. Primers were designed and synthesized by Beijing Aodingkangsheng Biological Technology Co., LTD.
(§2) Human breast cancer cells MCF-7, as a human cancer cell line, were obtained from the Shanghai Cell Bank of Chinese Academy of Sciences. MCF-7 cells were incubated in Minimum Essential media (MEM) supplemented with 10% FBS, 100 U/ml penicillin, and 100 μg/m streptomycin in a humidified incubator with 5% CO2 and 95% air. The media were exchanged every three days.
(§3) In order to investigate the effect of Example 1 on the induction of cell apoptosis, mRNA expression levels of caspase-3, p21, cyclin E1, and cyclin A2, which are genes involved in cell cycle and apoptosis, were examined by RT-PCR. The cells were dispensed at 1×10^5 cells/well in a 6-well culture dish, and incubated for 24 hours. After 24 hours, the cells contained in the MEM containing 10% FBS were treated with Example 1 at 0, 1, 3, 6, 9, 12 or 15 μM, and incubated for 24 hours. After 24 hours, the cells were collected, and then RNA was extracted using Trizol reagent. […]

cyclin E1 = assay: RT-PCR mRNA expression of cyclin E1 in MCF-7 cells; assay type: cell-based, human; details: 0-15 μM, 24 hours, with increase in concentration
Description: as §1, §2, §3

cyclin A2 = assay: RT-PCR mRNA expression of cyclin A2 in MCF-7 cells; assay type: cell-based, human; details: 0-15 μM, 24 hours, with increase in concentration
Description: as §1, §2, §3

metastatic breast cancer = assay: Clinical test in a patient with metastatic breast cancer (CT images of the lungs); assay type: in vivo, human; details: oral 5 mg three times a day (15 mg/day), after 8, 13, 17 and 22 months of administration
Description: The following clinical test was conducted using the composition of Example 1.
The patient received hospital treatments and folk remedies since breast cancer was found in 2006, but the breast cancer was metastasized to the lungs, pleura, bones, and liver. In May 2014, pleural effusion and peritoneal fluid collection were found, and thus the pleural effusion was extracted several times. However, due to a severe difficulty in breathing caused by malignant pleural effusion, the patient breathed through an oxygen respiratory system in an emergency room and hospice medical ward. However, the patient began to develop pallor due to a lack of oxygen, and the patient, having about one week left to live, was orally administered with 5 mg of Example 1 three times a day (15 mg/day).
CT images of the patient before the administration of Example 1 and after 8, 13, 17 and 22 months of administration of Example 1 are shown in FIG. 6. Before the administration of Example 1, the airway was closed due to metastasis to the right lung and left lung, but after 8, 13, 17, and 22 months of administration, the sizes of the cancers in both of the lungs were decreased as the duration of administration increased.

[2] = test system: human breast cancer cells MCF-7; assay: Induction of cell apoptosis by flow cytometry (Annexin V-FITC / PI); assay type: cell-based; details: MCF-7 cells, 0, 1, 3, 6, 9, 12 or 15 μM, 24 hours; with increase in treatment concentration
Description: as §1, §2
The effect of Example 1 on the induction of cell apoptosis was assessed by flow cytometry. The cells were dispensed at 1×10^5 cells/well in a 6-well culture dish, and incubated for 24 hours. After 24 hours, the cells contained in the MEM containing 10% FBS were treated with Example 1 at 0, 1, 3, 6, 9, 12 or 15 μM, and incubated for 24 hours. After 24 hours, the cells were treated using Annexin V-FITC kit to check cell apoptosis, and also treated with propidium iodide (PI) for distinguishment from natural cell death. […] The cells treated with the Annexin V-FITC kit were analyzed for the degree of cell apoptosis by using the BD FACS calibur flow cytometry system. […]

caspase-3 = assay: RT-PCR mRNA expression of caspase-3 in MCF-7 cells; assay type: cell-based, human; details: 0-15 μM, 24 hours, with increase in concentration
Description: as §1, §2, §3

[3] = test system: human breast cancer cells SK-BR-3; assay: Cell proliferation assay (MTT assay), SK-BR-3 cells; assay type: cell-based
Description: (§4) Fetal bovine serum (FBS) and cell culture medium were prepared (Hyclone), and dimethyl sulfoxide (DMSO) and 3-(4,5-dimetyl-thiazol-2yl)-2,5-diphenyltetrazolium bromide (MTT, Amresco LLC, USC) were prepared.
(§5) As human cancer cell lines, human breast cancer cells MCF-7 and SK-BR-3 were obtained from the Shanghai Cell Bank of Chinese Academy of Sciences. The MCF-7 cells were incubated in Minimum Essential Media (MEM) supplemented with 10% FBS, 100 U/ml penicillin, and 100 μg/ml streptomycin and the SK-BR-3 cells were incubated in Dulbecco's modified Eagle's medium (DMEM) supplemented with 10% FBS, 100 U/ml penicillin, and 100 μg/ml streptomycin in a humidified incubator with 5% CO2 and 95% air. The media were exchanged every three days.
(§6) The effects of Example 1 and Comparative Examples 1 to 3 on cell proliferation were assessed using MTT assay. MTT assay is based on the ability of viable cells against MTT to produce insoluble dark blue formazan products. After the cells were suspended in the medium by trypsin treatment and collected, the cells were dispensed at a density of 4×10^3 cells/well in a 96-well culture dish (Costar, Cambridge, Mass., USA). […] All the crystals were completely dissolved by standing at room temperature for 15 minutes, and the absorbance was measured using a micro-plate reader at a wavelength of 570 nm (A570 nm).
(§7) The absorbance value of the control group treated without the sample was calculated as 100, and the absorbance value of the treatment group treated with the sample, compared with that of the control group, was calibrated, and the percentage of inhibition of cell proliferation was calculated according to the following equation. Percentage (%) of inhibition of cell proliferation=((mean absorbance of control group cells−mean absorbance of treatment group cells)/mean absorbance of control group cells)×100
(§8) All data were expressed as mean±standard error of the mean (mean±SEM). […]

[4] = test system: human breast cancer cells MCF-7; assay: Cell proliferation assay (MTT assay), MCF-7 cells; assay type: cell-based
Description: as §4, §5, §6, §7, §8

[5] = compared with Comparative Example 2 or 3 (Example 1 and Comparative Example 1 mixed at 4:1 or 1:1)

O1[As]2O[As]3O[As]1O[As](O2)O3 [Comparative Example 1, tetraarsenic hexoxide]
percentage of inhibition of cancer cell metastasis [1]: 50%
spreading of the breast cancer cells to the lungs [1]: inhibited

tetraarsenic hexoxide [Example 1]
percentage of inhibition of cancer cell metastasis [1]: ≥ 90%
spreading of the breast cancer cells to the lungs [1]: inhibited
mRNA expression of p21 (p21): increased
mRNA expression of cyclin E1 (cyclin E1): increased
mRNA expression of cyclin A2 (cyclin A2): decreased
sizes of the cancers in both of the lungs (CT images) (metastatic breast cancer): decreased
cell apoptosis (annexin V compared with PI) [2]: increased
mRNA expression of caspase-3 (caspase-3): increased
percentage of inhibition of SK-BR-3 cell proliferation [3, 5]: higher
percentage of inhibition of SK-BR-3 cell proliferation ([3]; incubation 48 hours (FIG. 3A), compared with Comparative Example 1, 0-80 μM): higher
percentage of inhibition of SK-BR-3 cell proliferation ([3]; incubation 72 hours (FIG. 3B), compared with Comparative Example 1, 0-80 μM): higher
percentage of inhibition of MCF-7 cell proliferation [4, 5]: higher
percentage of inhibition of MCF-7 cell proliferation ([4]; incubation 48 hours (FIG. 2A), compared with Comparative Example 1, 0-80 μM): higher
percentage of inhibition of MCF-7 cell proliferation ([4]; incubation 72 hours (FIG. 2B), compared with Comparative Example 1, 0-80 μM): higher
